{"source": "patent US20030217378A1", "about": "“Cloning using rapidly matured oocytes” (The University of Georgia Research Foundation, Inc, priority 2002, published 2003)", "format_in_all_cases": "cell-based", "key": {"porcine oocytes [1]": {"test_system": "porcine oocytes", "assay": "Experiment 1: meiotic resumption of porcine oocytes cultured in maturation medium with 1 mM dbcAMP", "description": "(§1) Ovaries were collected from prepubertal gilts at a local slaughterhouse and transported to the laboratory at 30-35° C. Antral follicles (2-5 mm in diameter) were aspirated with an 18-gauge needle using vacuum suction (40 mm Hg). […] Oocytes were cultured in 4-well plates (Nunc, Roskilde, Denmark) containing 500 μl of each medium. TCM-199 (Gibco) supplemented with 3.05 mM D-glucose, 0.91 mM Na-pyruvate, 0.57 mM cysteine, 10 ng/ml epidermal growth factor (Sigma), 10 IU/ml eCG (Sioux Biochemicals, Sioux Center, Iowa), 10 IU/ml hCG (Intervet, Millsboro, Del.), and 10% (v:v) porcine follicular fluid was used as a basic maturation medium.\nAfter culture for each period, degenerated oocytes with lysed cytoplasmic membranes were removed."}, "porcine oocytes [2]": {"test_system": "porcine oocytes", "assay": "Experiment 2: maturation to metaphase II of porcine oocytes treated with dbcAMP for 20 h, then cultured without dbcAMP", "conditions": "1 mM dbcAMP for 20 h", "description": "as §1\nOocytes continued to be cultured for additional 4, 10, 16, and 22 h and examined for meiotic progression to the M II stage by staining with 5 μg/ml Hoechst 33342."}, "[3]": {"test_system": "porcine embryos reconstituted with 42-h-matured oocytes", "assay": "Experiment 5: in vitro development of porcine nuclear transfer embryos reconstituted with 42-h-matured oocytes treated with dbcAMP", "description": "as §1\nAt the end of maturation, cumulus cells were removed by vortexing with 0.1% (w:v) hyaluronidase (Sigma) and denuded oocytes were transferred into 100 μl of Hepes-buffered TCM-199 with the osmolarity adjusted to 300 mOsm by adding sorbitol supplemented with 7.5 μg/ml cytochalasin B (Sigma) and 10% FCS (manipulation medium). The first polar body and MII plate were removed by aspiration with a 15-μm inner diameter glass pipette. The oocytes had been previously stained in the manipulation medium supplemented with 5 μg/ml Hoechst 33342 (Sigma) for 20 min and confirmation of successful enucleation was achieved by visualizing the cytoplast and removed cytoplasm under ultraviolet light. After enucleation, a donor cell was inserted into the perivitelline space of each enucleated oocyte using the same glass pipette. Cell-oocyte complexes were washed in TCM-199 supplemented with 10% FCS, transferred to the same medium and kept in a CO2 incubator adjusted to 5% CO2 in air at 38.5° C. until fusion.\nThe chamber for fusion was a 100 mm dish filled with 15 ml of Zimmerman fusion medium, Zimmerman, et al., Electric field-induced cell-to-cell fusion. J Membr Biol 1982, 67: 165-182. Two stainless steel wires (100 μm diameter) were used as electrodes and they were attached to micromanipulators. The single cell-oocyte complex was sandwiched between the electrodes and oriented with the contact surface between the cytoplast and the donor cell perpendicular to the electrodes. The distance between the electrodes was about 100 μm. Membrane fusion was induced by applying a single direct current pulse of 250 V/mm for a duration of 20 μsec with a prepulse of alternating current field of 5 V, 1 MHz for 2 sec using an LF 101 Fusion Machine (TR Tech Co., Tokyo, Japan). Following the fusion pulse, the complexes were washed in G1.2 medium, Gandhi, et al., Substrate utilization in porcine embryos cultured in NCSU23 and G1.2/G2.2 sequential culture media, Mol Reprod Dev 2001, 58: 269-275 and cultured for a period of 1 h in 100 μl of the same medium. Fusion was then determined by microscopic examination.\nAt 3 h after fusion, fused embryos were washed once in Zimmerman fusion medium and then placed between 2 wire electrodes (1 mm apart) of the fusion chamber slide with 15 ml of the medium. Direct current pulses of 75 V/mm were applied twice to the embryos for a duration of 60 μsec at intervals of 5 sec. Activated embryos were incubated in 100 μl of G1.2 medium supplemented with 7.5 μg/ml cytochalasin B for 2 h after activation to prevent extrusion of polar bodies, Miyoshi, et al. (2000) (supra), and then transferred into G1.2 medium. After culture in G 1.2 medium for 3 days, the embryos were transferred into 100 μl of G2.2 medium, Gandhi, et al., (2001) (supra), and continued to be cultured. The embryos were examined for cleavage and blastocyst formation at 2 and 7 days of culture, respectively. At the end of the culture period, all blastocysts were counted for nuclei after Hoechst staining. The blastocysts were placed on slides with a drop of mounting medium consisting of glycerol and PBS (9: 1) containing 0.1 mg/ml Hoechst 33342. A cover slip was placed on the top of the blastocysts and the edge was sealed with fingernail polish. The numbers of nuclei were counted under ultraviolet light. […]"}, "[4]": {"conditions": "then 4 h additional culture without dbcAMP"}, "[5]": {"conditions": "then 10 h additional culture without dbcAMP"}, "[6]": {"conditions": "then 16 h additional culture without dbcAMP"}, "[7]": {"conditions": "then 22 h additional culture without dbcAMP"}, "[8]": {"conditions": "oocytes treated with 1 mM dbcAMP for 20 h, 42-h-matured, examined at 2 days of culture"}, "[9]": {"conditions": "oocytes treated with 1 mM dbcAMP for 20 h, 42-h-matured, examined at 7 days of culture"}, "[10]": {"conditions": "oocytes treated with 1 mM dbcAMP for 20 h, M II oocytes collected at 42 h of maturation"}}, "note": "Where “and” joins values, the source holds several entries; their conditions need not be identical. Equal entries are not always repeated.", "data": [{"smiles": "CCCC(=O)Nc1ncnc2c1ncn2[C@@H]1O[C@@H]2COP(=O)(O)O[C@H]2[C@H]1OC(=O)CCC", "note": "[dbcAMP, dibutyryl cyclic AMP]", "values": [{"measurement": "No. of oocytes at the germinal vesicle stage", "setting": "porcine oocytes [1]; 16 h of culture", "value": 49}, {"measurement": "oocytes at the germinal vesicle stage (%), percentage (mean ± SEM) of oocytes examined", "setting": "porcine oocytes [1]; 16 h of culture", "value": "77.8% and 77.8 ± 3.2%"}, {"measurement": "No. of oocytes at the germinal vesicle stage", "setting": "porcine oocytes [1]; 20 h of culture", "value": 43}, {"measurement": "oocytes at the germinal vesicle stage (%), percentage (mean ± SEM) of oocytes examined", "setting": "porcine oocytes [1]; 20 h of culture", "value": "72.9% and 72.9 ± 10.4%"}, {"measurement": "No. of oocytes at the germinal vesicle stage", "setting": "porcine oocytes [1]; 24 h of culture", "value": 33}, {"measurement": "oocytes at the germinal vesicle stage (%), percentage (mean ± SEM) of oocytes examined", "setting": "porcine oocytes [1]; 24 h of culture", "value": "54.1 ± 7.0", "unit": "%"}, {"measurement": "No. of oocytes at the germinal vesicle stage", "setting": "porcine oocytes [1]; 42 h of culture", "value": 27}, {"measurement": "oocytes at the germinal vesicle stage (%), percentage (mean ± SEM) of oocytes examined", "setting": "porcine oocytes [1]; 42 h of culture", "value": "44.3% and 44.3 ± 2.6%"}, {"measurement": "effect of addition of dbcAMP on the percentage of GV oocytes versus absence", "setting": "porcine oocytes [1]; at each culture period (16, 20, 24, 42 h), P<0.05", "value": "increased"}, {"measurement": "effect of addition of dbcAMP on the percentage of M II oocytes versus absence", "setting": "porcine oocytes [2]; at 10 h of additional culture, P<0.05", "value": "decreased"}, {"measurement": "No. of oocytes at the metaphase II stage", "setting": "porcine oocytes [2]; [4]", "value": 30}, {"measurement": "oocytes at the metaphase II stage (%), percentage (mean ± SEM) of oocytes examined", "setting": "porcine oocytes [2]; [4]", "value": "35.3% and 35.3 ± 9.2%"}, {"measurement": "No. of oocytes at the metaphase II stage", "setting": "porcine oocytes [2]; [5]", "value": 25}, {"measurement": "oocytes at the metaphase II stage (%), percentage (mean ± SEM) of oocytes examined", "setting": "porcine oocytes [2]; [5]", "value": "29.8% and 29.8 ± 1.4%"}, {"measurement": "No. of oocytes at the metaphase II stage", "setting": "porcine oocytes [2]; [6]", "value": 54}, {"measurement": "oocytes at the metaphase II stage (%), percentage (mean ± SEM) of oocytes examined", "setting": "porcine oocytes [2]; [6]", "value": "67.5% and 67.5 ± 8.4%"}, {"measurement": "No. of oocytes at the metaphase II stage", "setting": "porcine oocytes [2]; [7]", "value": 69}, {"measurement": "oocytes at the metaphase II stage (%), percentage (mean ± SEM) of oocytes examined", "setting": "porcine oocytes [2]; [7]", "value": "85.2 ± 5.0", "unit": "%"}, {"measurement": "difference in mean numbers of cells in the blastocysts between presence and absence of dbcAMP treatment", "setting": "[3]; 42-h-matured oocytes", "value": "no significant difference"}, {"measurement": "difference in percentages of fused cell-oocyte complexes, cleaved embryos and embryos developed to blastocysts between presence and absence of dbcAMP treatment", "setting": "[3]; 42-h-matured oocytes", "value": "no significant differences"}, {"measurement": "Mean no. ± SEM of cells in blastocysts", "setting": "[3]; oocytes treated with 1 mM dbcAMP for 20 h, 42-h-matured, blastocysts at end of culture", "value": "49.0 ± 7.0"}, {"measurement": "No. of embryos developed to ≧2-cell", "setting": "[3]; [8]", "value": 48}, {"measurement": "embryos developed to ≧2-cell (%), percentage (mean ± SEM) of complexes fused", "setting": "[3]; [8]", "value": "41.4 ± 8.3", "unit": "%"}, {"measurement": "No. of embryos developed to Blastocyst", "setting": "[3]; [9]", "value": 2}, {"measurement": "embryos developed to Blastocyst (%), percentage (mean ± SEM) of complexes fused", "setting": "[3]; [9]", "value": "1.7 ± 1.5", "unit": "%"}, {"measurement": "No. of complexes fused", "setting": "[3]; [10]", "value": 116}, {"measurement": "complexes fused (%), percentage (mean ± SEM) of complexes treated", "setting": "[3]; [10]", "value": "80.0 ± 4.5", "unit": "%"}]}]}
